Assay results as given in article PMC7923466, “Mining of two novel aldehyde dehydrogenases (DHY-SC-VUT5 and DHY-G-VUT7) from metagenome of hydrocarbon contaminated soils” (BMC Biotechnology, 2021).

Columns and labels:
DHY-G-VUT7 = tested on: T1, DHY-G-VUT7; test: NADH formation at […] nm, Michaelis-Menten fit (GraphPad Prism); assay type: biochemical, metagenome: hydrocarbon contaminated soil; conditions: 50 mM NAD+, 50 mM Tris-HCl pH 8.0, 30 °C; hexanal 25-200 mM
T1 construct: codon-optimised synthetic gene in pET-30a(+) (NdeI/HindIII), C-terminal 6xHis kept, E. coli BL21(DE3), Ni-NTA purified, ~67 kDa band

DHY-SC-VUT5 = tested on: T2, DHY-SC-VUT5; test: as above; assay type: biochemical, uncultured bacterium; conditions: 50 mM NAD+, 50 mM Tris-HCl pH 8.0, 30 °C; hexanal 25-200 mM
T2 construct: codon-optimised synthetic gene in pET-30a(+) (NdeI/HindIII), C-terminal 6xHis kept, E. coli BL21(DE3), Ni-NTA purified, ~51 kDa band

- Km (DHY-G-VUT7): 2.83 mM
- Km (DHY-SC-VUT5): 13.8 mM
Compound: CCCCCC=O [hexanal]
